The record followed here is the METLIN SMRT retention time set (Domingo-Almenara et al. 2019).

Each structure is given as a SMILES string.

The data set is described as follows: gradient 5% acetonitrile 3 min, to 50% in 2 min, to 85% in 15 min, held 3 min, 100 µL/min. The following applies: column: Zorbax Extend-C18 2.1 x 50 mm; eluents: water / acetonitrile, 0.1% formic acid. Put shortly:
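The system's dead and dwell volumes were 40 μL and 900 μL, with a Zorbax Extend-C18 column (2.1 × 50 mm, 1.8 μm) run at 100 μL/min in water and acetonitrile containing 0.1% formic acid each. Pure standards were analyzed in mixtures of ~100 molecules by HPLC–quadrupole time-of-flight mass spectrometry in positive and negative ionization mode. Retention time was assigned from computationally picked, manually inspected adduct peaks.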
`CCCN1CCN(C(=O)C2CCN(c3nc4ccc(-c5ccccc5)nc4s3)CC2)CC1`: the RP-LC retention time amounted to 693 s.

Compound `Cc1nc(-c2ccc(F)cc2)nc2c1CCC(=O)N2Cc1ccco1` registered an RP-LC retention time of 720 s.

Compound `COc1ccccc1N1CCN(CCNC(=O)C(=O)NC2CCCCC2)CC1` displayed an RP-LC retention time of 599 s.

Take `CN(C)C(=O)c1ccc2c(c1)nnn2CCNC(=O)Nc1ccc(Cl)cc1`: the RP-LC retention time came to 678 s.

For the compound `COc1cc(NC(=O)CSc2ccc(N3CCOCC3)nn2)cc(OC)c1`, the RP-LC retention time worked out at 682 s.

`CCn1cc(CCN2CCN(C(=O)C3CCCC3)CC2)c2cccnc21` had an RP-LC retention time of 597 s.

The compound `O=C(C1CCN(S(=O)(=O)c2cc(-c3noc(C4CCC4)n3)cs2)CC1)N1CCOCC1` had an RP-LC retention time of 863 s.

`COC(=O)c1cc2ccsc2n1CC(=O)Nc1ccc(F)cc1F` came in with an RP-LC retention time of 949 s.

`O=C(Nc1nnc(C2=COCCO2)o1)c1ccco1` came in with an RP-LC retention time of 559 s.

Compound `CCCN1C(=O)COc2ccc(-c3noc(-c4cncc(Br)c4)n3)cc21` showed an RP-LC retention time of 1160 s.

In the case of `COc1ccc(CCNC(=O)C2CCCN(c3ccc(-c4ccco4)nn3)C2)cc1OC` (stereo not given), the RP-LC retention time worked out at 618 s.

As to `CCCNc1cc(N2CCCC(CCC(=O)NCc3cccc(F)c3)C2)ncn1` (stereo not given), the RP-LC retention time was determined as 696 s.

Consider `CC(C)Cn1cc(S(=O)(=O)N2CCSCC2)c2cccnc21`, for which the RP-LC retention time stood at 969 s.

Take `O=C1CC(c2noc(CCCc3ccccc3)n2)CN1c1ccc(F)c(Cl)c1` (stereo not given): the RP-LC retention time is 1150 s.

Consider `Cc1nc(CC(=O)Nc2ccc(F)c(Cl)c2)sc1C(=O)NC1CC1`, for which the RP-LC retention time was found to be 759 s.

In the case of `CN(C)CCCNc1oc(-c2ccccc2F)nc1S(=O)(=O)c1ccccc1`, the RP-LC retention time stood at 666 s.

In the case of `CCN1C(=O)COc2ccc(-c3noc(-c4ccc(OC)cc4)n3)cc21`, the RP-LC retention time came out at 1130 s.

`O=C(CCCc1ccccc1)N1CCCC1c1nc(-c2ccccc2)no1` (stereo not given) came in with an RP-LC retention time of 694 s.

`COc1cc2c(cc1OC)C(C(=O)Nc1ccc3c(c1)OCCO3)C(c1cccs1)N(C)C2=O` (stereo not given) displayed an RP-LC retention time of 783 s.

Compound `Cc1noc(C2CC3(CCN(C(=O)C4(c5ccccc5)CC4)CC3)CN2C)n1` (stereo not given) registered an RP-LC retention time of 631 s.

The compound `CCn1cc(CCNC(=O)Nc2ccccc2OC)c2cccnc21` returned an RP-LC retention time of 718 s.

`CCS(=O)(=O)N1CCc2ccc(NC(=O)COc3ccc(Cl)cc3Cl)cc2C1` yielded an RP-LC retention time of 964 s.

Turning to `Cc1ccc(NS(=O)(=O)c2cc(-c3cc(C(F)(F)F)on3)sc2C)cc1C`, the RP-LC retention time was 1200 s.

Take `COc1ccc(CNS(=O)(=O)c2cc3c(s2)CCN(C(=O)C2CC2)C3)cc1`: the RP-LC retention time is 812 s.

In the case of `Cc1cc(C)cc(C(=O)N2CCC3(CC2)NC(=O)c2ccc(F)cc2N3C)c1`, the RP-LC retention time was 787 s.

With `COCCCNC(=O)c1cc2c(n(-c3ccc(C(C)C)cc3)c1=O)CCCC2=O`, the RP-LC retention time is 882 s.

As for `CCn1ncc(C(=O)N2CC[C@@H]3CN(S(C)(=O)=O)[C@@H]3C2)c1C`, the RP-LC retention time is 594 s.

In the case of `Cc1cc(C)c(NC(=O)Cn2cc(-c3nc(C)no3)ccc2=O)c(C)c1`, the RP-LC retention time was 712 s.

Turning to `COCCCNC(=O)NCc1cccnc1OC`, the RP-LC retention time came to 594 s.

As to `CN1c2ccc(Cl)cc2C(=O)NC12CCN(C(=O)NCc1ccc(F)cc1)CC2`, the RP-LC retention time is 785 s.

As to `O=C(NCCc1csc(-c2cccc(F)c2)n1)c1cccs1`, the RP-LC retention time came to 905 s.

As to `Cc1c(Cl)cccc1N1C(=O)CN(S(C)(=O)=O)CC1(C)C(=O)NC1CCCCC1` (stereo not given), the RP-LC retention time is 892 s.

For the compound `Fc1cccc(Cn2cc(-c3noc(-c4ccc5cc[nH]c5c4)n3)nn2)c1`, the RP-LC retention time is 996 s.

`Cc1cccc(NS(=O)(=O)c2cc3n(c2)CCCNC3=O)c1C`: the RP-LC retention time came to 658 s.

`COCCCNC(=O)c1c(OCC(C)C)cc(=O)n2c1CCCCC2` came in with an RP-LC retention time of 638 s.

`CCn1nccc1-c1cccc(-c2noc(CNS(=O)(=O)c3ccc(F)cc3)n2)c1` displayed an RP-LC retention time of 931 s.

`CC1CCN(c2ccc(-c3noc(CN4CCN(c5ccccc5)CC4)n3)cn2)CC1` had an RP-LC retention time of 787 s.

`CCCN(CC1CC1)C(=O)[C@@H]1COCC(=O)N1Cc1ccccc1` came in with an RP-LC retention time of 818 s.

With `CCc1nnc(-c2ccc(=O)n(CC(=O)Nc3ccc(C)cc3C)c2)o1`, the RP-LC retention time was determined as 693 s.

`O=c1cc(CN(Cc2ccccc2)Cc2ccccc2)nc2ccccn12` had an RP-LC retention time of 671 s.

`O=C(c1ccc(OCC2CCCN2C(=O)c2ccc(F)cc2)cc1)N1CCCC1` (stereo not given) came in with an RP-LC retention time of 829 s.

As to `CCc1ccccc1NC(=O)C1CC(=O)N(c2ccc3c(c2)CCN3C(C)=O)C1` (stereo not given), the RP-LC retention time came to 698 s.

`COc1ccc(C)cc1NC(=O)C1N(C(C)C)C(=O)C12CCCC2` (stereo not given) registered an RP-LC retention time of 844 s.

Regarding `COc1ccc(CCNC(=O)CN2C(=O)CSc3cccn3-c3ccccc32)cc1OC`, the RP-LC retention time came to 831 s.

In turn, `CCOc1cccc2cc(C(=O)Nc3nc(-c4ccccc4)cs3)c(=N)oc12` showed an RP-LC retention time of 987 s.

`Cc1cc(C)c(NC(=O)Cn2nc3c(N(C)C4CCCCC4)nccn3c2=O)c(C)c1` registered an RP-LC retention time of 797 s.

Compound `CC(=O)c1cccc(NC(=O)Nc2cccc(-c3ccc(N4CCOCC4)nn3)c2)c1` had an RP-LC retention time of 655 s.

With `Cc1ccc(CC(=O)NC2CCN(c3ccccc3)C2=O)cc1` (stereo not given), the RP-LC retention time was 797 s.

Consider `Cc1cccc(CNS(=O)(=O)c2ccc3c(c2)C(=O)N(C)c2ncccc2O3)c1`, for which the RP-LC retention time is 886 s.

The compound `O=C(CC(=O)Nc1ccccc1F)Nc1ccc2nc3n(c(=O)c2c1)CCCCC3` showed an RP-LC retention time of 722 s.

`COCc1cc2nn(CC(=O)Nc3cc(F)ccc3C)c(=O)n2c(-c2ccccc2)n1` came in with an RP-LC retention time of 853 s.

`COc1ccc(-c2ccnc3nc(-c4ccccc4OC)nn23)c(F)c1` returned an RP-LC retention time of 872 s.

`CCOC(=O)Cc1c(C(=O)OCC)nnc2c(-c3ccccc3)c(C)nn12` had an RP-LC retention time of 1080 s.

Compound `CCCNC(=O)C1CCCN(c2ccc(SCC(=O)Nc3cccc(C)c3C)nn2)C1` (stereo not given) displayed an RP-LC retention time of 665 s.

As to `O=C(Cn1nc2c(N3CCSCC3)nccn2c1=O)NCCC1=CCCCC1`, the RP-LC retention time stood at 861 s.

`O=C1CCCc2c1cc(C(=O)Nc1ccc(Cl)cc1)c(=O)n2-c1ccc(F)cc1` registered an RP-LC retention time of 1060 s.

`CCc1nnc2nc(N3CCN(C(=O)c4cccc(N(C)C)c4)CC3)cc(C)n12` showed an RP-LC retention time of 574 s.

On to `CCn1ccc2c(cc(C(=O)Nc3cccc(F)c3)n2C)c1=O`, for which the RP-LC retention time came to 768 s.

In the case of `CNC(=O)[C@@H]1C[C@@H](O)CN1C1CCN(C(=O)c2cc(C)oc2C)CC1`, the RP-LC retention time turned out to be 613 s.

Take `Cn1nc(C(=O)N2CCCCC2)c2c1CCN(C(=O)CCC(=O)NCCCN1CCCCC1)C2`: the RP-LC retention time stood at 579 s.

The compound `COC(=O)Cc1[nH]c(=O)[nH]c1C(=O)OC` returned an RP-LC retention time of 1100 s.

On to `CCOc1ccccc1NC(=O)C1CCN(S(=O)(=O)c2cn(C(C)C)cn2)CC1`, for which the RP-LC retention time was 846 s.

In the case of `COc1ccc(S(=O)(=O)NC2CCN(C(=O)Nc3ccc(F)c(Cl)c3)CC2)cc1`, the RP-LC retention time was determined as 900 s.

On to `Cc1nc(-c2ccc(-c3noc(CNS(=O)(=O)c4ccccc4)n3)cc2)cs1`, for which the RP-LC retention time stood at 960 s.

In turn, `COc1ccc(C(=O)NC2CCN(c3cc(-c4ccc(Cl)cc4)[nH]n3)C2)cc1` (stereo not given) yielded an RP-LC retention time of 776 s.

`N#Cc1cccc(-c2nc(-c3cccc(-c4ccn[nH]4)c3)no2)c1` showed an RP-LC retention time of 920 s.

For the compound `Cc1noc(-c2ccc(=O)n(CC(=O)NC3CCc4ccccc43)c2)n1` (stereo not given), the RP-LC retention time came out at 669 s.

For `COc1ccc(CN2CC[C@]3(CO)CN(Cc4ccccc4)C[C@@H]3C2)c(Cl)c1OC`, the RP-LC retention time was found to be 579 s.

Turning to `Cc1ccccc1CNC(=O)c1csc(-c2cn(C)c3ncccc23)n1`, the RP-LC retention time was 1120 s.

Take `CCN1CCN(CCNC(=O)c2cc3n(n2)CCCN(Cc2cccc(C)c2)C3=O)CC1`: the RP-LC retention time came to 602 s.

`CCN(CCN(C)C)c1ccc(C(=O)O)cc1NS(=O)(=O)c1ccc(Br)cc1` showed an RP-LC retention time of 648 s.

`O=C(NC1CCS(=O)(=O)C1)c1ccc(N2CCCC2)nn1` (stereo not given) displayed an RP-LC retention time of 520 s.

In turn, `O=C(NC1CCN(Cc2ccccc2)CC1)c1cc2c(=O)n(Cc3ccccc3)ccc2s1` returned an RP-LC retention time of 688 s.

As for `CCC1(O)CCOC2(CCN(Cc3cccc(OC)n3)CC2)C1` (stereo not given), the RP-LC retention time was determined as 602 s.

On to `CCOC(=O)c1nc(Nc2ccc(F)cc2F)c2ccccc2n1`, for which the RP-LC retention time turned out to be 845 s.

For `CN(CC1CCOCC1)C(=O)Nc1cccc(C(F)(F)F)c1`, the RP-LC retention time is 816 s.

Take `CCN1CCn2cc(S(=O)(=O)Nc3cc(F)ccc3F)cc2C1=O`: the RP-LC retention time worked out at 715 s.

In the case of `O=C(c1ccc(F)cc1)N1CCN(c2nc(CN3CCOCC3)cs2)CC1`, the RP-LC retention time was found to be 597 s.

`CC(C)n1nnc2ccc(-c3noc(CNC(=O)c4ccccc4)n3)cc21` gave an RP-LC retention time of 825 s.

The compound `COC(=O)c1[nH]c(C)c(CN(C(=O)C2CCCCC2)C2CCCC2)c1C` returned an RP-LC retention time of 1060 s.
